In article PMC6274087, “New Phragmalin-Type Limonoids from Chukrasia tabularis and Their α-Glucosidase Inhibitory Activity” (Molecules, 2016):

Experiments:
α-glucosidase = assay: in vitro α-glucosidase inhibitory assay (4-nitrophenyl-α-D-glucopyranoside substrate, OD at 405 nm); details: for α-glucosidase inhibitory activity (result in words): bioactivity screening; for IC50: read-out: IC50 Value, α-glucosidase inhibitory activity, mean ± SD of triplicate experiments, acarbose as positive control
Protocol: The optimized procedure was as follows: 20 μL of 0.2 U/mL α-glucosidase has been added into 0.1mM potassium phosphate buffer (pH 6.8, 112 μL), then mixed with the testing sample (8 μL). After being preincubated at 37 °C for 15 min, 20 μL of 2.5 mmol/L 4-nitrophenyl-α-D-glucopyranoside was added and then mixed. The reaction was carried out at 37 °C for 15 min and stopped by adding 0.2 M solution of Na2CO3 (80 μL). The optical density values of the reaction mixture were the mean values of three measurements, which were performed at 405 nm wavelength.

Compound | melting point [°C] | α-glucosidase inhibitory activity (result in words) (α-glucosidase) | IC50 (α-glucosidase) [µM]
CC(=O)OC(C1=CC(O)OC1=O)C1(C)C(OC(C)=O)C(OC(C)=O)C2(O)C34OC(C)(CC13)OC4C1(OC(C)=O)C(OC(C)=O)C3(C)CC1(O)C21COC(=O)CC31 (stereo not drawn) [Compound 1, Chukbularisin A] | 201 to 203 | – | –
CC(=O)OC1C2(C)CC34OC5(C)OC6(C7CC(=O)OC(c8ccoc8)C7(C)CCC6(O5)C35OC(=O)CC25)C(OC(=O)C(C)C)C14O (stereo not drawn) [Compound 2, Chukbularisin B] | 185 to 186 | showed inhibitory activities | 60 ± 8
COC(=O)CC1C2(C)CC3(O)C(O)(C2OC(C)=O)C(OC(=O)C(C)C)C24OC5(C)OC(C(OC(C)=O)C67CC62C(OC(=O)C(C)C)C(=O)OC7c2ccoc2)C4(O5)C13C (stereo not drawn) [Compound 3, Chukbularisin C] | 198 to 199 | showed inhibitory activities | 40 ± 2
COC(=O)C(OC(C)=O)C1C2(C)CC3(O)C(O)(C2OC(C)=O)C2OC4(C(C)C)OC5(C(OC(C)=O)C(OC(C)=O)C67CC6(C(OC(C)=O)C(=O)OC7c6ccoc6)C25O4)C13C (stereo not drawn) [Compound 4, Chukbularisin D] | 190 to 191 | showed inhibitory activities | 520 ± 39
COC(=O)C(OC(C)=O)C1C2(C)CC3(O)C(OC(=O)C(C)C)(C2OC(C)=O)C2OC4(C)OC5(C(OC(C)=O)C(OC(C)=O)C67CC6(C(OC(C)=O)C(=O)OC7c6ccoc6)C25O4)C13C (stereo not drawn) [Compound 5, Chukbularisin E] | 208 to 209 | showed inhibitory activities | 1090 ± 40
COC(=O)C(OC(C)=O)C1C2(C)CC34OC5(C)OC6(C(O)C(OC(C)=O)C78CC7(C(OC(C)=O)C(=O)OC8c7ccoc7)C6(O5)C(OC(=O)C(C)C)C3(O)C2OC(C)=O)C14C (stereo not drawn) [Compound 8, chubularisin K] | – | showed inhibitory activities | 200 ± 57
